From ChEMBL document CHEMBL3885881, “DrugMatrix”

Species on record: Rattus norvegicus
Assay: DrugMatrix - Regimen: Daily Repeat
Assay type: toxicity, organism-based, Sprague-Dawley
Design: regimen Daily Repeat, gender Male, age 6-8 weeks
Conditions: in vivo, po, route oral GAVAGE, vehicle .5 % CMC; for ABSOLUTE BASOPHIL / ABSOLUTE EOSINOPHIL / ABSOLUTE LYMPHOCYTE / ABSOLUTE MONOCYTE / ABSOLUTE SEGMENTED NEUTROPHIL / BASOPHIL / EOSINOPHIL / ERYTHROCYTE COUNT / HEMATOCRIT / HEMOGLOBIN / LEUKOCYTE COUNT / LYMPHOCYTE / MEAN CORPUSCULAR HEMOGLOBIN / MEAN CORPUSCULAR HEMOGLOBIN CONCENTRATION / MEAN CORPUSCULAR VOLUME / MONOCYTE / NEUTROPHIL / NUCLEATED RED BLOOD CELLS / PLATELET COUNT: tissue Blood; for ALANINE AMINOTRANSFERASE / ALBUMIN / ALKALINE PHOSPHATASE / ASPARTATE AMINOTRANSFERASE / BLOOD UREA NITROGEN / CARBON DIOXIDE / CHLORIDE / CHOLESTEROL / CREATINE PHOSPHOKINASE / CREATININE / GLUCOSE / LACTATE DEHYDROGENASE / LIPASE / PHOSPHORUS / POTASSIUM / SODIUM / TOTAL BILIRUBIN / TOTAL PROTEIN / URIC ACID: tissue Plasma
[1] = 0 mg/kg, 72 h, dose level Control, time 3 day
[2] = 0 mg/kg, 120 h, dose level Control, time 5 day
[3] = 15 mg/kg, 72 h, dose level Low, time 3 day

SMILES: COC(=O)c1ccc(O)cc1 [METHYLPARABEN]
- ABSOLUTE BASOPHIL [1]: 0 CELLS/uL
- ABSOLUTE EOSINOPHIL [1]: 0 CELLS/uL
- ABSOLUTE LYMPHOCYTE [1]: 10913.67 CELLS/uL
- ABSOLUTE MONOCYTE [1]: 85.33 CELLS/uL
- ABSOLUTE SEGMENTED NEUTROPHIL [1]: 1401 CELLS/uL
- BASOPHIL [1]: 0%
- EOSINOPHIL [1]: 0%
- ERYTHROCYTE COUNT [1]: 5.57 x10E6/uL
- HEMATOCRIT [1]: 35.58%
- HEMOGLOBIN [1]: 13.8 G/DL
- LEUKOCYTE COUNT [1]: 12.4 x10E3/uL
- LYMPHOCYTE [1]: 88%
- MEAN CORPUSCULAR HEMOGLOBIN [1]: 24.78 pg
- MEAN CORPUSCULAR HEMOGLOBIN CONCENTRATION [1]: 38.82 G/DL
- MEAN CORPUSCULAR VOLUME [1]: 63.88 fL
- MONOCYTE [1]: 0.67%
- NEUTROPHIL [1]: 11.33%
- NUCLEATED RED BLOOD CELLS [1]: 0 /100WBC
- PLATELET COUNT [1]: 1162.33 x10E3/uL
- ALANINE AMINOTRANSFERASE [1]: 53 u/L
- ALBUMIN [1]: 4.17 G/DL
- ALKALINE PHOSPHATASE [1]: 374.5 u/L
- ASPARTATE AMINOTRANSFERASE [1]: 89.5 u/L
- BLOOD UREA NITROGEN [1]: 16.33 mg/dL
- CARBON DIOXIDE [1]: 29.17 mmol/L
- CHLORIDE [1]: 97.67 MEQ/L
- CHOLESTEROL [1]: 77 mg/dL
- CREATINE PHOSPHOKINASE [1]: 464.83 u/L
- CREATININE [1]: 0.14 mg/dL
- GLUCOSE [1]: 164 mg/dL
- LACTATE DEHYDROGENASE [1]: 155.5 u/L
- LIPASE [1]: 9.17 u/L
- PHOSPHORUS [1]: 12.4 mg/dL
- POTASSIUM [1]: 6.91 MEQ/L
- SODIUM [1]: 141.47 MEQ/L
- TOTAL BILIRUBIN [1]: 0.2 mg/dL
- TOTAL PROTEIN [1]: 5.95 G/DL
- URIC ACID [1]: 1.72 mg/dL
- ABSOLUTE BASOPHIL [2]: 0 CELLS/uL
- ABSOLUTE EOSINOPHIL [2]: 20.5 CELLS/uL
- ABSOLUTE LYMPHOCYTE [2]: 13871.67 CELLS/uL
- ABSOLUTE MONOCYTE [2]: 60.5 CELLS/uL
- ABSOLUTE SEGMENTED NEUTROPHIL [2]: 980.67 CELLS/uL
- BASOPHIL [2]: 0%
- EOSINOPHIL [2]: 0.17%
- ERYTHROCYTE COUNT [2]: 5.65 x10E6/uL
- HEMATOCRIT [2]: 35.63%
- HEMOGLOBIN [2]: 14.08 G/DL
- LEUKOCYTE COUNT [2]: 14.93 x10E3/uL
- LYMPHOCYTE [2]: 92.83%
- MEAN CORPUSCULAR HEMOGLOBIN [2]: 24.97 pg
- MEAN CORPUSCULAR HEMOGLOBIN CONCENTRATION [2]: 39.55 G/DL
- MEAN CORPUSCULAR VOLUME [2]: 63.13 fL
- MONOCYTE [2]: 0.33%
- NEUTROPHIL [2]: 6.67%
- NUCLEATED RED BLOOD CELLS [2]: 0 /100WBC
- PLATELET COUNT [2]: 1248.17 x10E3/uL
- ALANINE AMINOTRANSFERASE [2]: 45.17 u/L
- ALBUMIN [2]: 4.27 G/DL
- ALKALINE PHOSPHATASE [2]: 405.67 u/L
- ASPARTATE AMINOTRANSFERASE [2]: 74.17 u/L
- BLOOD UREA NITROGEN [2]: 15.5 mg/dL
- CARBON DIOXIDE [2]: 30.17 mmol/L
- CHLORIDE [2]: 100.67 MEQ/L
- CHOLESTEROL [2]: 57 mg/dL
- CREATINE PHOSPHOKINASE [2]: 239.5 u/L
- CREATININE [2]: 0.17 mg/dL
- GLUCOSE [2]: 165.67 mg/dL
- LACTATE DEHYDROGENASE [2]: 90.5 u/L
- LIPASE [2]: 8.83 u/L
- PHOSPHORUS [2]: 12.32 mg/dL
- POTASSIUM [2]: 7.03 MEQ/L
- SODIUM [2]: 142.65 MEQ/L
- TOTAL BILIRUBIN [2]: 0.18 mg/dL
- TOTAL PROTEIN [2]: 6.03 G/DL
- URIC ACID [2]: 1.98 mg/dL
- ABSOLUTE BASOPHIL [3]: 0 CELLS/uL
- ABSOLUTE EOSINOPHIL [3]: 0 CELLS/uL
- ABSOLUTE LYMPHOCYTE [3]: 13173.33 CELLS/uL
- ABSOLUTE MONOCYTE [3]: 95.67 CELLS/uL
- ABSOLUTE SEGMENTED NEUTROPHIL [3]: 1364.33 CELLS/uL
- BASOPHIL [3]: 0%
- EOSINOPHIL [3]: 0%
- ERYTHROCYTE COUNT [3]: 5.6 x10E6/uL
- HEMATOCRIT [3]: 37.1%
- HEMOGLOBIN [3]: 14.57 G/DL
- LEUKOCYTE COUNT [3]: 14.63 x10E3/uL
- LYMPHOCYTE [3]: 90%
- MEAN CORPUSCULAR HEMOGLOBIN [3]: 26.03 pg
- MEAN CORPUSCULAR HEMOGLOBIN CONCENTRATION [3]: 39.27 G/DL
- MEAN CORPUSCULAR VOLUME [3]: 66.23 fL
- MONOCYTE [3]: 0.67%
- NEUTROPHIL [3]: 9.33%
- NUCLEATED RED BLOOD CELLS [3]: 0.67 /100WBC
- PLATELET COUNT [3]: 1171 x10E3/uL
- ALANINE AMINOTRANSFERASE [3]: 56.67 u/L
- ALBUMIN [3]: 4.2 G/DL
- ALKALINE PHOSPHATASE [3]: 324 u/L
- ASPARTATE AMINOTRANSFERASE [3]: 86 u/L
- BLOOD UREA NITROGEN [3]: 16.33 mg/dL
- CARBON DIOXIDE [3]: 26.67 mmol/L
- CHLORIDE [3]: 98.67 MEQ/L
- CHOLESTEROL [3]: 78 mg/dL
- CREATINE PHOSPHOKINASE [3]: 194 u/L
- CREATININE [3]: 0.14 mg/dL
- GLUCOSE [3]: 149.67 mg/dL
- LACTATE DEHYDROGENASE [3]: 120 u/L
- LIPASE [3]: 9.33 u/L
- PHOSPHORUS [3]: 14.03 mg/dL
- POTASSIUM [3]: 6.83 MEQ/L
- SODIUM [3]: 143.63 MEQ/L
- TOTAL BILIRUBIN [3]: 0.23 mg/dL
- TOTAL PROTEIN [3]: 5.9 G/DL
- URIC ACID [3]: 1.83 mg/dL
